Data taken from patent publication US20050101595A1, “N-containing cycloalkyl-substituted amino-thiazole derivatives and pharmaceutical compositions for inhibiting cell proliferation and methods for their use” (PFIZER INC., priority 2003, published 2005).
Like-named read-outs stand apart in the source and are kept apart here. Each block holds one compound with its values, some of them ahead of it.

Assays:
[1] = test system: HCT-116 cell line; assay: Inhibition of cell growth, tetrazolium salt (MTT) assay; type: cell-based; settings: for HCT-116 % Inhibition at 0.25 μM: 0.25 μM compound; for IC50: Homo sapiens, HCT-116, 120 h, MTT, three to five days, read-out: HCT-116 IC50
In short: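 Cells in McCoy's 5A medium were left 4 h, then given graded compound concentrations in 0.5% (v/v) DMSO and incubated three to five days at 37° C (5% CO2). MTT was added to 0.2 mg/mL for 4 h more; DMSO-solubilized formazan was read at 540 nm against 0.5% DMSO-only controls.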

[2] = target: human CDK4 and genetically truncated (1-264) cyclin D3 (Homo sapiens, UniProt P11802); assay: Inhibition of CDK4/Cyclin D Retinoblastoma Kinase Activity; type: biochemical; settings: for Ki: apparent Ki, CDK4/truncated cyclin D3, Rb fragment substrate, 25 μM ATP
In short: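 Apparent Ki values derive from fitting activity at varied inhibitor concentrations to a competitive (or competitive tight-binding) model. Kinase reactions used 5 nM CDK4/cyclin D3(1-264), Rb fragment substrate and 25 μM ATP. Incubation ran 20 min at 30 °C, extended to 60 min under linear conditions for tight binders.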

[3] = target: CDK2/Cyclin A (Homo sapiens, UniProt P24941); assay: Inhibition of CDK2/Cyclin A Retinoblastoma Kinase Activity; type: biochemical; settings: for CDK2 % Inhibition At 0.03 μM: Table 2; for Ki: apparent Ki, CDK2/proteolyzed cyclin A, Rb fragment substrate, 25 μM ATP
In short: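 Percent inhibition is calculated against DMSO-only wells after subtracting no-enzyme background. The enzyme is human CDK2 complexed with proteolyzed cyclin A, used at 10 nM or 19 nM on an Rb fragment with 25 μM [32/33P]ATP, at pH 7.4 and 30° C.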

[4] = 0.1 μM compound, HCT-116, Table 4
[5] = 0.1 μM compound, HCT-116, Table 3
[6] = 0.03 μM compound, Table 4, 0.03 µM

Chain of human CDK4 and genetically truncated (1-264) cyclin D3 (P11802 whole entry, the tested form may be a part): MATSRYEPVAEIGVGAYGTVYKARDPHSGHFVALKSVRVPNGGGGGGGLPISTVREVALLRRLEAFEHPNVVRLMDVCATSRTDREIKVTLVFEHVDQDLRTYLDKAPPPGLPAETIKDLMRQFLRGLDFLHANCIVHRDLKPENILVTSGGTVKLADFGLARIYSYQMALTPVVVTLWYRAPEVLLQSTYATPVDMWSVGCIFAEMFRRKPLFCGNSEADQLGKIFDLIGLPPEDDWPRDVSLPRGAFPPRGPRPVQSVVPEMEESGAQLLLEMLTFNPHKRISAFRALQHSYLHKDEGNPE
Chain of human CDK4 and genetically truncated (1-264) cyclin D3 (P30281 1-264 partner): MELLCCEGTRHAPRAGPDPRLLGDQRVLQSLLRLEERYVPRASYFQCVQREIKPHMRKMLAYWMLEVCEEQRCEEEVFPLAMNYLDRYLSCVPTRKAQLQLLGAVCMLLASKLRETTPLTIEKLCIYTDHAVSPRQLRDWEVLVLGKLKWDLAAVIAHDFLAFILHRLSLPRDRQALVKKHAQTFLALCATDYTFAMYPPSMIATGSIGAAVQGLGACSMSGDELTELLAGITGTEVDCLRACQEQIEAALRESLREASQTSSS

SMILES: Nc1nc(NC2CCN(C(=O)Nc3cccc(C(F)(F)F)c3)CC2)sc1C(=O)c1c(F)cccc1F [Example O16]
HCT-116 % Inhibition at 0.25 μM ([1]; HCT-116, Table 2): 6%
CDK4 % Inhibition at 0.03 μM ([2]; 0.03 μM compound, Table 2): 5%
CDK2 % Inhibition At 0.03 μM ([3]; 0.03 μM compound): 34%

SMILES: Nc1nc(NC2CCN(S(=O)(=O)CCCc3nnn[nH]3)CC2)sc1C(=O)c1c(F)cccc1F [Example K18, 1-(4-Amino-2-{1-[3-(1H-tetrazol-5-yl)-propane-1-sulfonyl]-piperidin-4-ylamino}-thiazol-5-yl)-1-(2,6-difluoro-phenyl)-methanone.]
IC50 ([1]; first HCT-116 column (c4)): > 5000 nM
IC50 ([1]; second HCT-116 column (c5)): > 5000 nM
Ki [2]: 18 nM
Ki [3]: 3.1 nM

SMILES: Nc1nc(NC2CCN(S(=O)(=O)c3ccc(-c4ncc[nH]4)cc3)CC2)sc1C(=O)c1c(F)cccc1F [Example F34]
IC50 ([1]; first HCT-116 column (c4)): 1500 nM
IC50 ([1]; second HCT-116 column (c5)): 2600 nM
Ki [2]: 0.51 nM
Ki [3]: < 1 nM

SMILES: CC(C)c1ccccc1NC(=O)N1CCC(Nc2nc(N)c(C(=O)c3c(F)cccc3F)s2)CC1 [Example O40]
HCT-116 % Inhibition at 0.25 μM ([1]; HCT-116, Table 2): 3%
CDK4 % Inhibition at 0.03 μM ([2]; 0.03 μM compound, Table 2): 6%
CDK2 % Inhibition At 0.03 μM ([3]; 0.03 μM compound): 30%

Now from value to compound, other results behind:

CDK4 % Inhibition at 0.03 μM ([2]; 0.03 μM compound, Table 4): 13%
CDK2 % Inhibition at 0.03 μM ([3]; 0.03 μM compound, Table 4): −43%
SMILES: CN(C)C(=O)N1CCC(Nc2nc(N)c(C(=O)c3c(F)cccc3F)s2)CC1 [Example Q2]
HCT-116 % Inhibition at 0.1 μM [1, 4]: 0.71%
HCT-116 % Inhibition at 0.25 μM ([1]; HCT-116, Table 4): 43%

CDK4 % Inhibition at 0.03 μM ([2]; 0.03 μM compound, Table 4): 51%
CDK2 % Inhibition at 0.03 μM ([3]; 0.03 μM compound, Table 4): 41%
SMILES: Nc1nc(NC2CCN(C(=O)c3ccccc3[N+](=O)[O-])CC2)sc1C(=O)c1c(F)cccc1F [Example Q68]
HCT-116 % Inhibition at 0.1 μM [1, 4]: 4%
HCT-116 % Inhibition at 0.25 μM ([1]; HCT-116, Table 4): 33%

CDK4 % Inhibition at 0.03 μM ([2]; at 0.03 μM): 15%
CDK2 % Inhibition at 0.03 μM ([3]; at 0.03 μM): 19%
SMILES: Cc1oc(-c2ccccc2)cc1C(=O)N1CCC(Nc2nc(N)c(C(=O)c3c(F)cccc3F)s2)CC1 [Example R77]
HCT-116 % Inhibition at 0.1 μM ([1]; HCT-116 cells, at 0.1 μM): 0%
HCT-116 5 Inhibition at 0.25 μM ([1]; HCT-116 cells): 44

CDK4 % Inhibition at 0.03 μM ([2]; at 0.03 μM): 12%
CDK2 % Inhibition at 0.03 μM ([3]; at 0.03 μM): −29%
SMILES: COC(C(=O)N1CCC(Nc2nc(N)c(C(=O)c3c(F)cccc3F)s2)CC1)(c1ccccc1)C(F)(F)F (centres unmarked) [Example R16]
HCT-116 % Inhibition at 0.1 μM ([1]; HCT-116 cells, at 0.1 μM): 6%
HCT-116 5 Inhibition at 0.25 μM ([1]; HCT-116 cells): 41

CDK4 % Inhibition at 0.03 μM ([2]; 0.03 μM compound, Table 3): 77%
CDK2 % Inhibition at 0.03 μM ([3]; 0.03 μM compound, Table 3): 75%
SMILES: Nc1nc(NC2CCN(S(=O)(=O)c3ccc(F)cc3)CC2)sc1C(=O)c1c(F)cccc1F [Example P13]
HCT-116 % Inhibition at 0.1 μM [1, 5]: 19%
HCT-116 % Inhibition at 0.25 μM ([1]; HCT-116, Table 3): 31%

CDK4 % Inhibition at 0.03 μM [2, 6]: 49%
CDK2 % Inhibition at 0.03 μM [3, 6]: 41%
SMILES: Nc1nc(NC2CCN(C(=O)c3cccs3)CC2)sc1C(=O)c1c(F)cccc1F [Example Q61]
HCT-116 % Inhibition at 0.1 μM ([1]; 0.1 μM compound, HCT-116, Table 4, 0.1 µM): 0%
HCT-116 % Inhibition at 0.25 μM ([1]; HCT-116, Table 4, 0.25 µM): 34%

CDK4 % Inhibition at 0.03 μM ([2]; at 0.03 μM): 43%
CDK2 % Inhibition at 0.03 μM ([3]; at 0.03 μM): 23%
SMILES: Nc1nc(NC2CCN(C(=O)CCOc3ccccc3)CC2)sc1C(=O)c1c(F)cccc1F [Example R173]
HCT-116 % Inhibition at 0.1 μM ([1]; HCT-116 cells, at 0.1 μM): 0%
HCT-116 5 Inhibition at 0.25 μM ([1]; HCT-116 cells): 43

CDK4 % Inhibition at 0.03 μM ([2]; 0.03 μM compound, Table 3): 33%
CDK2 % Inhibition at 0.03 μM ([3]; 0.03 μM compound, Table 3): 17%
SMILES: COc1ccc(C)cc1S(=O)(=O)N1CCC(Nc2nc(N)c(C(=O)c3c(F)cccc3F)s2)CC1 [Example P59]
HCT-116 % Inhibition at 0.1 μM [1, 5]: 19%
HCT-116 % Inhibition at 0.25 μM ([1]; HCT-116, Table 3): 24%

CDK4 % Inhibition at 0.03 μM ([2]; 0.03 μM compound, Table 4): 74%
CDK2 % Inhibition at 0.03 μM ([3]; 0.03 μM compound, Table 4): 33%
SMILES: Nc1nc(NC2CCN(C(=O)c3ccc(Cl)c(Cl)c3)CC2)sc1C(=O)c1c(F)cccc1F [Example Q20]
HCT-116 % Inhibition at 0.1 μM [1, 4]: 28%
HCT-116 % Inhibition at 0.25 μM ([1]; HCT-116, Table 4): 69%
